Measured values from ChEMBL document CHEMBL1130933, “Structure-based design of N-[2-(1-piperidinylethyl)]-N'-[2-(5-bromopyridyl)]-thiourea and N-[2-(1-piperazinylethyl)]-N'-[2-(5-bromopyridyl)]-thiourea as potent non-nucleoside inhibitors of HIV-1 reverse transcriptase” (Bioorg Med Chem Lett, 1998).

Assays:
Format in all cases: functional
[1] = Compound was evaluated for cellular proliferation (on viability of peripheral blood mononuclear cells) using microculture tetrazolium assay (MTA).; details: Homo sapiens
[2] = Inhibitory effect on p24 production in HIV-infected peripheral blood mononuclear cells.; details: Homo sapiens
[3] = Selective index was evaluated from inhibitory concentrations of compound

SMILES: Cc1cn([C@H]2C[C@H](N=[N+]=[N-])[C@@H](CO)O2)c(=O)[nH]c1=O [ZIDOVUDINE]
- IC50 [1]: 50000 nM
- IC50 [2]: 6 nM

SMILES: S=C(NCCN1CCCCC1)Nc1ccc(Br)cn1
- Selectivity index [3]: > 100000
- IC50 [1]: > 100000 nM
- IC50 [2]: < 1 nM

SMILES: S=C(NCCc1ccccn1)Nc1ccc(Br)cn1 [TROVIRDINE]
- Selectivity index [3]: > 10000
- IC50 [1]: > 100000 nM
- IC50 [2]: 7 nM

SMILES: S=C(NCCN1CCNCC1)Nc1ccc(Br)cn1
- Selectivity index [3]: > 50000
- IC50 [1]: > 100000 nM
- IC50 [2]: 2 nM
